Experiments:
HDAC4 = biological target: T1, HDAC4 (Homo sapiens, UniProt P56524); assay: In vitro HDAC enzyme inhibition assay, HDAC4; assay type: biochemical; conditions: for HDAC4/HDAC6 in vitro selectivity: ratio of IC50 for HDAC4 relative to that of HDAC6; for IC50: recombinant full-length HDAC4, substrate MAZ1675 10 μM; for selectivity toward HDAC6 compared to HDAC4 (in words): tested in vitro
T1 construct: Recombinant, full-length HDAC protein (BPS Biosciences) was incubated with fluorophore conjugated substrate; purchased BPS Biosciences
Method in brief: (§1)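 Deacetylase activity of full-length recombinant HDAC assessed via trypsin-coupled AMC release from substrate at Km concentration, pH 7.4 buffer with TCEP. Kinetic fluorescence slopes were normalized to controls.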

HDAC6 = biological target: T2, HDAC6 (Homo sapiens, UniProt Q9UBN7); assay: In vitro HDAC enzyme inhibition assay, HDAC6; assay type: biochemical; conditions: recombinant full-length HDAC6, substrate MAZ1600 9 μM
T2 construct: Recombinant, full-length HDAC protein (BPS Biosciences) was incubated with fluorophore conjugated substrate; purchased BPS Biosciences
T2 sequence (Q9UBN7 1-1215): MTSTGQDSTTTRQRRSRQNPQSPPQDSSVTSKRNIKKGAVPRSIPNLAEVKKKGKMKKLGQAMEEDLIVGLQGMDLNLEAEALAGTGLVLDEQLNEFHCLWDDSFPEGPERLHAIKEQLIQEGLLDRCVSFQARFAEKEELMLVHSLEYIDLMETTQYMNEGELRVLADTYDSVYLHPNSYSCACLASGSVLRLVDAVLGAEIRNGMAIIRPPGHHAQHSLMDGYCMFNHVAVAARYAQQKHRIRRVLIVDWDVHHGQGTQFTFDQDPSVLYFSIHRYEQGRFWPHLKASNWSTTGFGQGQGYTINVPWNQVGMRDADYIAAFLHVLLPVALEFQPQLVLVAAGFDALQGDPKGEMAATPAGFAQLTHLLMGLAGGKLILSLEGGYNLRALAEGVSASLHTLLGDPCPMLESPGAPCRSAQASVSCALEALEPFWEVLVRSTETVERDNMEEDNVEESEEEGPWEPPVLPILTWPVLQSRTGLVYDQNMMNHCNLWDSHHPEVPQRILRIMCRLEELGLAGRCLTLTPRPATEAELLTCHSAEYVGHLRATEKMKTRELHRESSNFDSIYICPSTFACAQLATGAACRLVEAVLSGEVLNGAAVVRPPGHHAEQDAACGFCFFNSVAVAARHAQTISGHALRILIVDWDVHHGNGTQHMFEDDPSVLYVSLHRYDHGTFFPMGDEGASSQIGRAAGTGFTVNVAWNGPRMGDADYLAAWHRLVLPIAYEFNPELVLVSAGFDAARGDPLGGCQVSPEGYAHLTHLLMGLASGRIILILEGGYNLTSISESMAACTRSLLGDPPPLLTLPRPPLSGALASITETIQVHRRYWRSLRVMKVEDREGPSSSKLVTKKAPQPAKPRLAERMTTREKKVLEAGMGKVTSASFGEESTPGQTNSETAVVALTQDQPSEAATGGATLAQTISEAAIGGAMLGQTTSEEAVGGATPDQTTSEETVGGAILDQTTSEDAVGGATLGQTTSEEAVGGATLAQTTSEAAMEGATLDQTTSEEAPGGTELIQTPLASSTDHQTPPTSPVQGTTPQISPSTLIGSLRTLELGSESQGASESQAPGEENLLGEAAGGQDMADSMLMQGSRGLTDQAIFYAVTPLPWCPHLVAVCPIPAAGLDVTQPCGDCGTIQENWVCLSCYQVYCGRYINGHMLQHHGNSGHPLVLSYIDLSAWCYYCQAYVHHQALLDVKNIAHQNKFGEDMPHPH
Method in brief: as §1

acetylated histones = assay: High-content image analysis of induction of acetylated histones in A549 cells; conditions: Homo sapiens, A549, 8 h, read-out: EC50 for half-maximal induction of acetylated histones (AcHistone)
Experimental: (§2) Cells were treated with each test HDACi compound with an automated pin transfer instrument (Janus, Perkin Elmer) and incubated for 8 hours. […] Fixation solution was aspirated and 90 μL of washing solution (0.1% Triton X-100 in PBS) was added prior to 10 minute incubation at 4° C. Washing solution was aspirated and cells were incubated at 4° C. for about 1 hour in blocking solution (0.1% Triton X-100+2% BSA in PBS). Washing solution was aspirated, and cells were incubated for about 1 hour at 4° C. in primary antibody for acetylated-tubulin (Sigma T7451) and acetylated-histone (Cell Signaling #9441L) at a 1:1000 dilution in blocking solution. Primary antibody solution was aspirated, and cells were washed three times in 90 μL of washing solution. […] Secondary antibody and nuclear staining solution was aspirated and cells were washed three times in 90 μL of washing solution. After the third wash, 50 μL of PBS was added to each well. Image acquisition was done on a high content imaging microscope (ImageXpress Micro, Molecular Devices), and image analysis (MetaXpress, Molecular Devices) was performed to obtain average acetylated-tubulin and acetylated-histone signal per cell based on treatment. Replicate experimental data from incubations with inhibitor were normalized to DMSO controls.

HDAC3 = biological target: T3, HDAC3 (Homo sapiens, UniProt O15379); assay: In vitro HDAC enzyme inhibition assay, HDAC3; assay type: biochemical; conditions: for HDAC3/HDAC6 in vitro selectivity: ratio of IC50 for HDAC3 relative to that of HDAC6; for IC50: recombinant full-length HDAC3, substrate MAZ1600 9 μM
T3 construct: Recombinant, full-length HDAC protein (BPS Biosciences) was incubated with fluorophore conjugated substrate; purchased BPS Biosciences
Method in brief: as §1

HDAC9 = biological target: T4, HDAC9 (Homo sapiens, UniProt Q9UKV0); assay: In vitro HDAC enzyme inhibition assay, HDAC9; assay type: biochemical; conditions: for HDAC9/HDAC6 in vitro selectivity: ratio of IC50 for HDAC9 relative to that of HDAC6; for IC50: recombinant full-length HDAC9, substrate MAZ1675 26 μM; for selectivity toward HDAC6 compared to HDAC9 (in words): tested in vitro
T4 construct: Recombinant, full-length HDAC protein (BPS Biosciences) was incubated with fluorophore conjugated substrate; purchased BPS Biosciences
Method in brief: as §1

HDAC5 = biological target: T5, HDAC5 (Homo sapiens, UniProt Q9UQL6); assay: In vitro HDAC enzyme inhibition assay, HDAC5; assay type: biochemical; conditions: for HDAC5/HDAC6 in vitro selectivity: ratio of IC50 for HDAC5 relative to that of HDAC6; for IC50: recombinant full-length HDAC5, substrate MAZ1675 40 μM; for selectivity toward HDAC6 compared to HDAC5 (in words): tested in vitro
T5 construct: Recombinant, full-length HDAC protein (BPS Biosciences) was incubated with fluorophore conjugated substrate; purchased BPS Biosciences
Method in brief: as §1

acetylated tubulin = assay: High-content image analysis of induction of acetylated tubulin in A549 cells; conditions: for EC50: Homo sapiens, A549, 8 h, read-out: EC50 for half-maximal induction of acetylated tubulin (AcTubulin); for AcHistone/AcTubulin in cell selectivity toward HDAC6: ratio of EC50 acetylated histone to EC50 acetylated tubulin, A549 cells
Experimental: as §2

HDAC8 = biological target: T6, HDAC8 (Homo sapiens, UniProt Q9BY41); assay: In vitro HDAC enzyme inhibition assay, HDAC8; assay type: biochemical; conditions: for HDAC8/HDAC6 in vitro selectivity: ratio of IC50 for HDAC8 relative to that of HDAC6; for IC50: recombinant full-length HDAC8, substrate MAZ1675 282 μM; for selectivity toward HDAC6 compared to HDAC8 (in words): tested in vitro
T6 construct: Recombinant, full-length HDAC protein (BPS Biosciences) was incubated with fluorophore conjugated substrate; purchased BPS Biosciences
T6 sequence (Q9BY41 1-377): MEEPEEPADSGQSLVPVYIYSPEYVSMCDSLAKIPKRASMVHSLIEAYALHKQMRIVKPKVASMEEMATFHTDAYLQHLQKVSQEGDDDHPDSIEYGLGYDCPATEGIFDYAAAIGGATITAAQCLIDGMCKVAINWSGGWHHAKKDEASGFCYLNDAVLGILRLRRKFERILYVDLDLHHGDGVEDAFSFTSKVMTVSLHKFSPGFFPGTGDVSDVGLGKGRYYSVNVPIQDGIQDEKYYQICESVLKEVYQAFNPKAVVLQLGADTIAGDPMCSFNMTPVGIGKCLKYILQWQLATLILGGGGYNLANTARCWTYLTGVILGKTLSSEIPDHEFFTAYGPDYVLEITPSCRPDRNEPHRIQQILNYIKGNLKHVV
Method in brief: as §1

HDAC1 = biological target: T7, HDAC1 (Homo sapiens, UniProt Q13547); assay: In vitro HDAC enzyme inhibition assay, HDAC1; assay type: biochemical; conditions: for HDAC1/HDAC6 in vitro selectivity: ratio of IC50 for HDAC1 relative to that of HDAC6; for IC50: recombinant full-length HDAC1, substrate MAZ1600 21 μM
T7 construct: Recombinant, full-length HDAC protein (BPS Biosciences) was incubated with fluorophore conjugated substrate; purchased BPS Biosciences
Method in brief: as §1

T1 sequence (P56524 whole entry): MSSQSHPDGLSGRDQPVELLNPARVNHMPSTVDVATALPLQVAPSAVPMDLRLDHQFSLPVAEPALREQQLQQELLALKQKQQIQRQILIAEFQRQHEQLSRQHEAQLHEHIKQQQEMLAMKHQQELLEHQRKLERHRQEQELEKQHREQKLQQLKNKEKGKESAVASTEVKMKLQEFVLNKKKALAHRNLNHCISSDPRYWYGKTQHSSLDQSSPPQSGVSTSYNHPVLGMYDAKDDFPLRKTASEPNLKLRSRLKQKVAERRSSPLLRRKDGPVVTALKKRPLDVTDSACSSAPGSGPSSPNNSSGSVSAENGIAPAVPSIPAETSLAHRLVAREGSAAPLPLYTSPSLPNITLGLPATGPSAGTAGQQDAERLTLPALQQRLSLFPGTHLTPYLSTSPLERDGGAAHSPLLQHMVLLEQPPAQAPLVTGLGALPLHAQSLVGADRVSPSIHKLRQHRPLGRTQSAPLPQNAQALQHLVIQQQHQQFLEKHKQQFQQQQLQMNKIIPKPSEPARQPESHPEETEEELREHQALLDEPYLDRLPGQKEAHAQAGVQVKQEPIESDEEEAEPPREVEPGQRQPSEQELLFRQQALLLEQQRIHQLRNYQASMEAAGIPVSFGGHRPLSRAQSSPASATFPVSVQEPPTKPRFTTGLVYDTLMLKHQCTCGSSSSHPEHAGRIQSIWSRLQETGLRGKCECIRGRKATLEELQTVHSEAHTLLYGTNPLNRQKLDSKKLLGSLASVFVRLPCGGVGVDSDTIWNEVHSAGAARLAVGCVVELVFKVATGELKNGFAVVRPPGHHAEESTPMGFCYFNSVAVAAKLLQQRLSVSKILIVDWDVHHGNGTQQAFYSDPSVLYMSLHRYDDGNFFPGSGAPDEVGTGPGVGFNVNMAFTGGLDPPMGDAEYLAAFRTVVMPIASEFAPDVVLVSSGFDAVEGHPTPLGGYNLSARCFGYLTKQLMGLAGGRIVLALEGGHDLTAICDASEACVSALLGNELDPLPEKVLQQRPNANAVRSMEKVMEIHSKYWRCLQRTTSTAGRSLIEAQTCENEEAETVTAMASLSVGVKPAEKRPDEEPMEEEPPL
T5 sequence (Q9UQL6 whole entry): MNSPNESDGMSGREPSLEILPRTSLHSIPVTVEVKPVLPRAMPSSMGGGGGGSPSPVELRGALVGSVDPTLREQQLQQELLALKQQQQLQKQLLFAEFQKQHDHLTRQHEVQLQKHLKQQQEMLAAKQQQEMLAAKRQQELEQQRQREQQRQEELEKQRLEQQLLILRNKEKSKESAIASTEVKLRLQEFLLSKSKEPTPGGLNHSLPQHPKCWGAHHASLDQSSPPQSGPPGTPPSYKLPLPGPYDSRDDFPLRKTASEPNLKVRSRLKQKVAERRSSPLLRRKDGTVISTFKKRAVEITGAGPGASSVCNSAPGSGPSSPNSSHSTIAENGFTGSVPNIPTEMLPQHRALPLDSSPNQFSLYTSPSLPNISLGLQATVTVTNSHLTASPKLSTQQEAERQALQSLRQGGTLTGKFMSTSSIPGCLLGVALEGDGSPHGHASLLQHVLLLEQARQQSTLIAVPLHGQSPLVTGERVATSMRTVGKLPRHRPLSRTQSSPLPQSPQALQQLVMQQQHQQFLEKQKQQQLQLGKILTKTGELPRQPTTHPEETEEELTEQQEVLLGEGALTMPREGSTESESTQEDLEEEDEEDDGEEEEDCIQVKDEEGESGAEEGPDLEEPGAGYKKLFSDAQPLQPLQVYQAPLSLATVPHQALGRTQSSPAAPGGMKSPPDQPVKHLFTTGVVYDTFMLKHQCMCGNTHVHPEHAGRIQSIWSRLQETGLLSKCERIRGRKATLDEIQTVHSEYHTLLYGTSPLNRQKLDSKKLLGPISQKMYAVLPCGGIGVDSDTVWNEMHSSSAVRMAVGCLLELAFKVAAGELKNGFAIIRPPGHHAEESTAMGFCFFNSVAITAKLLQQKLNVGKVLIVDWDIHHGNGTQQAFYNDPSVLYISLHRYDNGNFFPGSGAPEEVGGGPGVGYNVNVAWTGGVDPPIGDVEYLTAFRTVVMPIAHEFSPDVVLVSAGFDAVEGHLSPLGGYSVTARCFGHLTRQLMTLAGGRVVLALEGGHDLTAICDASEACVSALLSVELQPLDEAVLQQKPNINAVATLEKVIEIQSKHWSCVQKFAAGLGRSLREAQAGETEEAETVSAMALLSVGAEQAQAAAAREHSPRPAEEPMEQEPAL
T3 sequence (O15379 whole entry): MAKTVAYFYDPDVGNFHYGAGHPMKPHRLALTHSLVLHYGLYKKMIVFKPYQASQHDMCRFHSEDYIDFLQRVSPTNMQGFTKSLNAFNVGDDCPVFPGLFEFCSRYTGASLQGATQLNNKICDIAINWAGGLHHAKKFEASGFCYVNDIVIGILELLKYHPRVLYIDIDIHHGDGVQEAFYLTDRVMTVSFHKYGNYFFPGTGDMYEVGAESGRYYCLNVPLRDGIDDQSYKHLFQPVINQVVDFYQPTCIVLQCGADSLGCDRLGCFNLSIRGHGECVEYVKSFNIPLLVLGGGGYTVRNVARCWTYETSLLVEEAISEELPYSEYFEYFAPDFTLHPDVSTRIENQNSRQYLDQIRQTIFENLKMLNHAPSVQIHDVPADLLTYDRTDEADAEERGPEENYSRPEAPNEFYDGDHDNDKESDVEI
T3 sequence (Q9Y618 395-489 partner limits assumed): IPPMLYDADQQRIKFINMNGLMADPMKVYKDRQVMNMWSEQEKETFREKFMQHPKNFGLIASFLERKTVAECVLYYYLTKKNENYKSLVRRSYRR
T4 sequence (Q9UKV0 whole entry): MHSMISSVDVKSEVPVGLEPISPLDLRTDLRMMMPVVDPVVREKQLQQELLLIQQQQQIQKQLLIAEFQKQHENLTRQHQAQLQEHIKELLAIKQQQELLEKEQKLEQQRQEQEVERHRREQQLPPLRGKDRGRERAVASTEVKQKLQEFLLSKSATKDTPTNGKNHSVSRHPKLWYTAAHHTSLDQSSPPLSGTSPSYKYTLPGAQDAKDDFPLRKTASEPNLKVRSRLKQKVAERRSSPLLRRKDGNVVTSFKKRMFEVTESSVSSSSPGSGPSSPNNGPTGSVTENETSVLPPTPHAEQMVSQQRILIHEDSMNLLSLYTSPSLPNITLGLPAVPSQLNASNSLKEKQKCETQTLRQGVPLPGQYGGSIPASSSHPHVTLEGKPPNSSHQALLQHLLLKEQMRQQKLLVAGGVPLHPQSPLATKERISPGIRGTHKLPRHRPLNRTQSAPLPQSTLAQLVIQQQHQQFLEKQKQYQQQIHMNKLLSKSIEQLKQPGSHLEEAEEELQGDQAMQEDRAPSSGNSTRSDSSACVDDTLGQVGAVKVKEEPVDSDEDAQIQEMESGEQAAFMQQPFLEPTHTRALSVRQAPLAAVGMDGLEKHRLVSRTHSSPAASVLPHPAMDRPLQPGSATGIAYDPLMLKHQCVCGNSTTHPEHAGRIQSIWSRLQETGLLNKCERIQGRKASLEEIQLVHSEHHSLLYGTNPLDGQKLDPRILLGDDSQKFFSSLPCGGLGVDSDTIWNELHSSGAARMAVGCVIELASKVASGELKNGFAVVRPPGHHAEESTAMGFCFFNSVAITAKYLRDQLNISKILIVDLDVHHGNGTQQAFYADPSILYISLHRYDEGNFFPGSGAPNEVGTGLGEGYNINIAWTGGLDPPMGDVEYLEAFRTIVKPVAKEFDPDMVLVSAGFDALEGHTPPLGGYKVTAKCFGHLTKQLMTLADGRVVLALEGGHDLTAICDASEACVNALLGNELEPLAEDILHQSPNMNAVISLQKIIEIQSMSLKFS
T7 sequence (Q13547 whole entry): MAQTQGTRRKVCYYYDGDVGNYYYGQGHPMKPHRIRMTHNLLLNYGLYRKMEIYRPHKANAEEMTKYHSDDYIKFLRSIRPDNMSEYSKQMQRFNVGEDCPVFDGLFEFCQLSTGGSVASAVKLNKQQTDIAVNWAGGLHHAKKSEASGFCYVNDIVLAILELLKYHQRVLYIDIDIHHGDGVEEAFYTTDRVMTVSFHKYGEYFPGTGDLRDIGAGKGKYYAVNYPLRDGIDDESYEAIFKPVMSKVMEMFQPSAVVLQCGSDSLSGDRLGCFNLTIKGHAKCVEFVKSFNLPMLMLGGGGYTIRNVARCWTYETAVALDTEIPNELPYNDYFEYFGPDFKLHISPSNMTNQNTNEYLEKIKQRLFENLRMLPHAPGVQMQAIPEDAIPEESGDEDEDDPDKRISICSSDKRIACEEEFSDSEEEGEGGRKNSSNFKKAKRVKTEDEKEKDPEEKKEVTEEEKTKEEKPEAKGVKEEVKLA

SMILES | HDAC4/HDAC6 in vitro selectivity (HDAC4) | IC50 (HDAC4) | IC50 (HDAC6) | EC50 (acetylated histones) | HDAC3/HDAC6 in vitro selectivity (HDAC3) | IC50 (HDAC3) | HDAC9/HDAC6 in vitro selectivity (HDAC9) | IC50 (HDAC9) | HDAC5/HDAC6 in vitro selectivity (HDAC5) | IC50 (HDAC5) | EC50 (acetylated tubulin) | HDAC8/HDAC6 in vitro selectivity (HDAC8) | IC50 (HDAC8) | HDAC1/HDAC6 in vitro selectivity (HDAC1) | IC50 (HDAC1) | selectivity toward HDAC6 compared to HDAC4 (in words) (HDAC4) | selectivity toward HDAC6 compared to HDAC9 (in words) (HDAC9) | selectivity toward HDAC6 compared to HDAC5 (in words) (HDAC5) | AcHistone/AcTubulin in cell selectivity toward HDAC6 (acetylated tubulin) | selectivity toward HDAC6 compared to HDAC8 (in words) (HDAC8)
O=C(NO)c1ccc(Cn2c(=O)[nH]c3ccccc32)cc1 [B1, N-hydroxy-4-((2-oxo-2,3-dihydro-1H-benzo[d]imidazol-1-yl)methyl)benzamide] | 153386 | 2230 nM | 0.0145 nM | 263 nM | 14575 | 212 nM | 155186 | 2250 nM | 117927 | 1710 nM | 89.4 nM | 46328 | 673 nM | 9665 | 140 nM | exceptionally high selectivity (Inhibitors with in vitro selectivity values for HDAC6 of at least 30,000 are considered to have exceptionally high selectivity toward HDAC6) | exceptionally high selectivity (Inhibitors with in vitro selectivity values for HDAC6 of at least 30,000 are considered to have exceptionally high selectivity toward HDAC6) | exceptionally high selectivity (Inhibitors with in vitro selectivity values for HDAC6 of at least 30,000 are considered to have exceptionally high selectivity toward HDAC6) | 2.941 | exceptionally high selectivity (Inhibitors with in vitro selectivity values for HDAC6 of at least 30,000 are considered to have exceptionally high selectivity toward HDAC6)
O=C(NO)c1ccc(Cn2nnc3cc(F)ccc32)cc1 [C3, 4-((5-fluoro-1H-benzo[d][1,2,3]triazol-1-yl)methyl)-N-hydroxybenzamide] | 81082 | 2130 nM | 0.0263 nM | 1500 nM | 19646 | 516 nM | 62138 | 1630 nM | 68665 | 1810 nM | 144 nM | 28870 | 759 nM | 8300 | 218 nM | exceptionally high selectivity (Inhibitors with in vitro selectivity values for HDAC6 of at least 30,000 are considered to have exceptionally high selectivity toward HDAC6) | exceptionally high selectivity (Inhibitors with in vitro selectivity values for HDAC6 of at least 30,000 are considered to have exceptionally high selectivity toward HDAC6) | exceptionally high selectivity (Inhibitors with in vitro selectivity values for HDAC6 of at least 30,000 are considered to have exceptionally high selectivity toward HDAC6) | 10.4517 | –
Cc1ccc2c(c1)ncn2Cc1ccc(C(=O)NO)cc1 [A8, N-hydroxy-4-((5-methyl-1H-benzo[d]imidazol-1-yl)methyl)benzamide] | 7247 | 2760 nM | 0.381 nM | 79.5 nM | 1596 | 608 nM | 5975 | 2280 nM | 3687 | 1400 nM | 105 nM | 2847 | 1080 nM | 688 | 262 nM | – | – | – | 0.7591 | –

The next compounds have a lower IC50 (HDAC4) than those just listed; values first:

HDAC4/HDAC6 in vitro selectivity (HDAC4) | IC50 (HDAC4) | IC50 (HDAC6) | EC50 (acetylated histones) | HDAC3/HDAC6 in vitro selectivity (HDAC3) | IC50 (HDAC3) | HDAC9/HDAC6 in vitro selectivity (HDAC9) | IC50 (HDAC9) | HDAC5/HDAC6 in vitro selectivity (HDAC5) | IC50 (HDAC5) | EC50 (acetylated tubulin) | HDAC8/HDAC6 in vitro selectivity (HDAC8) | IC50 (HDAC8) | HDAC1/HDAC6 in vitro selectivity (HDAC1) | IC50 (HDAC1) | SMILES | selectivity toward HDAC6 compared to HDAC4 (in words) (HDAC4) | selectivity toward HDAC6 compared to HDAC9 (in words) (HDAC9) | selectivity toward HDAC6 compared to HDAC5 (in words) (HDAC5) | AcHistone/AcTubulin in cell selectivity toward HDAC6 (acetylated tubulin) | selectivity toward HDAC6 compared to HDAC8 (in words) (HDAC8)
21516 | 1480 nM | 0.069 nM | 900 nM | 3046 | 210 nM | 17278 | 1190 nM | 9686 | 668 nM | 188 nM | 7524 | 519 nM | 1399 | 96.5 nM | O=C(NO)c1ccc(Cn2cnc3cc(Cl)ccc32)cc1 [A10, 4-((5-chloro-1H-benzo[d]imidazol-1-yl)methyl)-N-hydroxybenzamide] | – | – | – | 4.787 | –
412836 | 1180 nM | 0.00286 nM | 229 nM | 6310 | 18.1 nM | 319552 | 915 nM | 229909 | 658 nM | 95.3 nM | 120780 | 346 nM | 4622 | 13.2 nM | Cc1ccc2c(c1)[nH]c(=O)n2Cc1ccc(C(=O)NO)cc1 [B2, N-hydroxy-4-((5-methyl-2-oxo-2,3-dihydro-1H-benzo[d]imidazol-1-yl)methyl)benzamide] | exceptionally high selectivity (Inhibitors with in vitro selectivity values for HDAC6 of at least 30,000 are considered to have exceptionally high selectivity toward HDAC6) | exceptionally high selectivity (Inhibitors with in vitro selectivity values for HDAC6 of at least 30,000 are considered to have exceptionally high selectivity toward HDAC6) | exceptionally high selectivity (Inhibitors with in vitro selectivity values for HDAC6 of at least 30,000 are considered to have exceptionally high selectivity toward HDAC6) | 2.402 | exceptionally high selectivity (Inhibitors with in vitro selectivity values for HDAC6 of at least 30,000 are considered to have exceptionally high selectivity toward HDAC6)

Reference: patent US20150197497A1, “SELECTIVE INHIBITORS OF HISTONE DEACETYLASE ISOFORM 6 AND METHODS THEREOF” (DANA-FARBER CANCER INSTITUTE, INC., priority 2011, published 2015)
